Results reported in patent publication US20250235456A1, “METHODS OF USE FOR AZA-QUINAZOLINE COMPOUNDS” (Iambic Therapeutics, Inc., priority 2024, published 2025).
Like-named read-outs stand apart in the source and are kept apart here.

Assays:
[1] = target: CDK2/Cyclin E1 full length (Homo sapiens (Human), UniProt P24941); assay: CDK2/Cyclin E1 Full length ADP-Glo Kinase Assay; assay type: biochemical; details: read-out: CDK2/CyclinE1 IC50
Experimental: CDK2/Cyclin E1 Full length ADP-Glo Kinase Assay
The purpose of CDK2/Cyclin El assay is to evaluate the inhibition (% inhibition and IC50 values) of small molecule inhibitors by using a Luminescent based ADP-Glo assay. CDK2/Cyclin El full length catalyzes the production of ADP from ATP. ADP-Glo assay monitors ADP producing biochemical reactions. ADP-Glo is performed in 2 steps upon completion of kinase reaction: a combined termination of kinase reaction and depletion of remaining ATP in the first step, and conversion of generated ADP to ATP and the newly produced ATP to light output using luciferase/luciferin reaction in the second step. The luminescent signal generated is proportional to the ADP concentration produced and is correlated with the kinase activity. CDK2/Cyclin E1 was purchased from Eurofins (Cat 14-475M). […] The assay was initiated with the addition of ATP-containing substrate solution, following a 30-minute pre-incubation of enzyme and inhibitor at room temperature in the reaction mixture. The reaction was stopped after 90 minutes at room temperature by the addition of 10 μL of ADP-GLO Reagent. After a 90 minute incubation, 20 uL of Kinase Detection Reagent was added. Samples were incubated for 40 minutes, after which plate well luminescence was measured on a Envision microplate reader. The IC50 determinations were made from a plot of the fractional velocity as a function of inhibitor concentration fit to the 4 parameters IC50 equation.

CDK6/Cyclin D3 = CDK6/Cyclin D3 (Homo sapiens (Human), UniProt Q00534); assay: CDK6/Cyclin D3 ADP-Glo Kinase Assay; assay type: biochemical; details: read-out: CDK6/CyclinD3 IC50
Summary of the method: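 Commercial CDK6/Cyclin D3 pre-incubated with inhibitor 30 min at room temperature, then reaction started with ATP/substrate and run 90 min at room temperature. ADP formed measured by ADP-Glo luminescence; IC50 from fractional velocity vs inhibitor concentration fit to a 4-parameter equation.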

CDK1/Cyclin B1 = CDK1/Cyclin B1 (Homo sapiens (Human), UniProt P06493); assay: CDK1/Cyclin B1 ADP-Glo Kinase Assay; assay type: biochemical
Summary of the method: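 Purchased CDK1/Cyclin B1 was pre-incubated 30 min with inhibitor at room temperature, then reacted 90 min at room temperature after adding ATP-containing substrate. ADP formed was read by two-step ADP-Glo luminescence. IC50 came from a 4-parameter fit of fractional velocity versus inhibitor concentration.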

CDK4/Cyclin D1 [2] = target: T1, CDK4/Cyclin D1 (Homo sapiens (Human), UniProt P11802); assay: CDK4/Cyclin D1 Mobility Shift Assay (MSA); assay type: biochemical; details: read-out: CDK4/CyclinD1 MSA IC50
Text: CDK4/Cyclin D1 Mobility Shift Assay (MSA) The purpose CDK4/Cyclin D1 assay is to evaluate the inhibition (% inhibition and IC50 values) in the presence of small molecule inhibitors by using a fluorescence based microfluidic mobility shift assay. CDK4/Cyclin D1 catalyzes the production of ADP from ATP that accompanies the phosphoryl transfer to the substrate peptide 5-FAM-Dyrktide (5-FAM-[…]) (Perkin Elmer Peptide 34). The mobility shift assay (MSA) electrophoretically separates the fluorescently labelled peptides (substrate and phosphorylated product) following the kinase reaction. Both substrate and product are measured, and the ratio of these values is used to generate % conversion of substrate to product by the LabChip EZ Reader. Typical reaction solutions contained 2% DMSO (+/−inhibitor), 10 mM MgCl2, 1 mM EGTA, 0.05% BSA, 2 mM DTT, 0.2 mM ATP, 0.01% Brig-35, 1.5 uM 5-FAM-Dyrktide, 2.5 nM CDK4/Cyclin D1 in 50 mM HEPES buffer at pH 7.5. The reaction was initiated with the addition of substrate solution, following a 30-minute pre-incubation of enzyme and inhibitor at 22° C. in the reaction mix. The reaction was stopped after 180 minutes by the addition of 75 μL of 500 mM EDTA and measured on a Perkin Elmer EZ reader instrument. IC50 determinations were made from a plot of the fractional velocity as a function of inhibitor concentration fit to the 4 parameters IC50 equation.

CDK4/Cyclin D1 [3] = target: T1, CDK4/Cyclin D1; assay: CDK4/Cyclin D1 CHEF Assay; assay type: biochemical; details: AQT; read-out: CDK4/CyclinD1 AQT IC50
Summary of the method: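 Peptide substrate AQT0258 carries a Sox fluorophore whose Mg(II)-dependent fluorescence (ex 360/em 485 nm) rises on phosphorylation. Enzyme and inhibitor pre-incubated 30 min at 22 °C, substrate added, reaction run 3 h at 22 °C. IC50 from 4-parameter fit of fractional velocity vs inhibitor concentration.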

MCF-7 cells = assay: Cell Growth Inhibition, MCF-7 (CellTiterGlo, 6 days); assay type: cell-based
Text: (§1) MCF-7 and OVCAR-3 cells were used to evaluate the anti-proliferation activity of the CDK inhibitors. MCF-7 (ATCC, HTB-22) cells are epithelial cells from a patient with ER+ metastatic adenocarcinoma. OVCAR-3 (ATCC, HTB-161) cells were derived from malignant ascites of a patient with ovarian cancer and are known to have CCNE1 amplification. Both cell lines were maintained in RPMI media supplemented with 10% fetal bovine serum. For cell growth inhibition assay, CDK inhibitors in DMSO solution were dispensed with either Echo 655 (Beckman Coulter) or Tecan D300e (TIP) into 384-well plates (Corning #3765) and the 384-well plates were UV-sterilized prior to the assay. The inhibitors were typically tested in the 10-10,000 nM concentration range with half-log serial dilutions. MCF-7 or OVCAR-3 (500 cells/30 μL/well) were added to each well using Multidrop Combi (ThermoFisher) using standard cassettes. The assay plates with cells were cultured at 37° C., 5% CO2 for 6 days. At the end of the 6-day treatment, 30 μL of CellTiterGlo 2.0 (Promega) was added to each well and the luminescent signal was read using CLARIOstar plus (BMG). The percentage of cell growth inhibition (% CGI) was calculated using the following formula % CGI=100-100×luminescencesample/luminescenecontrol. The half maximal inhibitory concentration (IC50) was determined by nonlinear curve fitting (four parameters, variable slope).

OVCAR-3 cells = assay: Cell Growth Inhibition, OVCAR-3 (CellTiterGlo, 6 days); assay type: cell-based
Text: as §1

CDK1/Cyclin B1, sequence (P06493 whole entry): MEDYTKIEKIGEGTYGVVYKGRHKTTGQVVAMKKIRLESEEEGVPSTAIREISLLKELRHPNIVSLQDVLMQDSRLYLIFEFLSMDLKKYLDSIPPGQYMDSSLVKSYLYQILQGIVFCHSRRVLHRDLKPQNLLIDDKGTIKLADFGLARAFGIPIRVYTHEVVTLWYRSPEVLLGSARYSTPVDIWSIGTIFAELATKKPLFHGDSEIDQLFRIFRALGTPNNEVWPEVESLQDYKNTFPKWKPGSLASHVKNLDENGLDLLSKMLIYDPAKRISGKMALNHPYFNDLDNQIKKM
CDK1/Cyclin B1, sequence (P14635 whole entry partner): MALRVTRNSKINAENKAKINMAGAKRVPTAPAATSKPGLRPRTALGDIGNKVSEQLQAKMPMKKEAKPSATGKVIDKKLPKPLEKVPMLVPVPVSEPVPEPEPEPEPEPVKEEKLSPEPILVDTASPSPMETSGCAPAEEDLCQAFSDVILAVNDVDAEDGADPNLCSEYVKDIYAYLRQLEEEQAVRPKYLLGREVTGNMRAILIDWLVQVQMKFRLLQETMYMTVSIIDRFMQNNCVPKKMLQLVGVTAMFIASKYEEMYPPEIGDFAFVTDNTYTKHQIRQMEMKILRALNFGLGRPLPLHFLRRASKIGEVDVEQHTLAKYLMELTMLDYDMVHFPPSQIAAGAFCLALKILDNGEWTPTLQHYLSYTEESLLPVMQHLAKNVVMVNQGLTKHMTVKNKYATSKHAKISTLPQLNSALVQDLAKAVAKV
CDK6/Cyclin D3, sequence (Q00534 whole entry): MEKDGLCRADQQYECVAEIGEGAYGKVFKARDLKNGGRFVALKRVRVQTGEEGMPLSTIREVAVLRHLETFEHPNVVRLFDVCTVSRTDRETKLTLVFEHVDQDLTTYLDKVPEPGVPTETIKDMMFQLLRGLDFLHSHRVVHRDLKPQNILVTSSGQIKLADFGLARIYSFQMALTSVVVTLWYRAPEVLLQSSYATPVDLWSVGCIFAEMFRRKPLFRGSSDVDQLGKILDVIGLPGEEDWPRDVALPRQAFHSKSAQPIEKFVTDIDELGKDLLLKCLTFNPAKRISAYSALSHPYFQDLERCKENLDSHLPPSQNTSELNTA
CDK6/Cyclin D3, sequence (P30281 whole entry partner): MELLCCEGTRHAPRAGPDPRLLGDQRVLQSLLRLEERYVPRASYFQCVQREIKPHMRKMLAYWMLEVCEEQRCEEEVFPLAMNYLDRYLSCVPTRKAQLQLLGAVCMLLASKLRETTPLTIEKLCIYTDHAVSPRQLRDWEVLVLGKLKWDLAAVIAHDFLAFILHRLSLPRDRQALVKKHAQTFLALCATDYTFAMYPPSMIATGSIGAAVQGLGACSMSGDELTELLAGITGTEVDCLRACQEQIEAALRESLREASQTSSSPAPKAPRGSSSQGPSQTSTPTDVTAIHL
T1 sequence (P11802 whole entry, species assumed): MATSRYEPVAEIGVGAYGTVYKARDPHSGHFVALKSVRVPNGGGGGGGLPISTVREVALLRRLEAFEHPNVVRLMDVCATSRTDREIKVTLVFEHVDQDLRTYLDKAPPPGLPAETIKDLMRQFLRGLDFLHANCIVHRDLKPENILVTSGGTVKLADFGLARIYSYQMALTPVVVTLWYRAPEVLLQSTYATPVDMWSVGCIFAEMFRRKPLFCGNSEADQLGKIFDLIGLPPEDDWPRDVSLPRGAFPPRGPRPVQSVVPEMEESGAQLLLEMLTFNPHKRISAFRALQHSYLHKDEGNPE
T1 sequence (P24385 whole entry partner, species assumed): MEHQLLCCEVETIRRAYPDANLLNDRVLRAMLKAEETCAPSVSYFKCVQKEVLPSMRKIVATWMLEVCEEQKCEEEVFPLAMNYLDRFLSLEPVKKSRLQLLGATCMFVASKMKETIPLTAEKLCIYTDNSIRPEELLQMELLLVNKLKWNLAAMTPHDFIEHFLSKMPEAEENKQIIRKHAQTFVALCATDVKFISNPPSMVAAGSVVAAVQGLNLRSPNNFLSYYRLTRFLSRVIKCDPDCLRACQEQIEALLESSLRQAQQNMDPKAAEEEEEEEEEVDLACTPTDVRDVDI

Row | Compound | IC50 [1] | IC50 (CDK6/Cyclin D3) | IC50 (CDK1/Cyclin B1) | IC50 (CDK4/Cyclin D1 [2]) | IC50 (CDK4/Cyclin D1 [3]) | IC50 (MCF-7 cells; Homo sapiens, MCF7, 144 h) | IC50 (OVCAR-3 cells; Homo sapiens, 144 h) | IC50 (MCF-7 cells) | IC50 (OVCAR-3 cells)
1 | CCN1CC2(C1)CN(c1ccc(Nc3ncc4ccnc(N5CCC6(C5)CC(F)(F)C6)c4n3)nc1)C2 [Example 6, 8-(2,2-difluoro-6-azaspiro[3.4]octan-6-yl)-N-(5-(6-ethyl-2,6-diazaspiro[3.3]heptan-2-yl)pyridin-2-yl)pyrido[3,4-d]pyrimidin-2-amine] |  | < 200 nM | > 2000 nM | < 200 nM |  |  |  |  | 
2 | CS(=O)(=O)N1CCC(Nc2ncc3ccnc(N4CCC5(C4)CC5(F)F)c3n2)CC1 (stereo not shown) [Compound 3, 8-(1,1-difluoro-5-azaspiro[2.4]heptan-5-yl)-N-(1-(methylsulfonyl)piperidin-4-yl)pyrido[3,4-d]pyrimidin-2-amine] |  | < 200 nM | < 200 nM | < 200 nM |  |  |  |  | 
3 | 1-cyclopropyl-3-(6-methyl-2-((1-(methylsulfonyl)piperidin-4-yl)amino)pyrido[3,4-d]pyrimidin-8-yl)cyclobutan-1-ol [Compound 85] | < 200 nM | < 200 nM | < 200 nM |  | < 200 nM |  |  | 500 to 2000 nM | 500 to 2000 nM
4 | CN1C[C@@H]2[C@H](C1)[C@H]2Nc1ncc2ccnc(N3CCC4(C3)CC4(F)F)c2n1 (stereo partly drawn) [Compound 17, 8-(1,1-difluoro-5-azaspiro[2.4]heptan-5-yl)-N-((1R,5S,6s)-3-methyl-3-azabicyclo[3.1.0]hexan-6-yl) pyrido[3,4-d]pyrimidin-2-amine] | 200 to 500 nM | 200 to 500 nM |  | < 200 nM |  |  |  |  | 
5 | CCN1CC2(C1)CN(c1ccc(Nc3ncc4ccnc(N5CCC6(C5)CC6(F)F)c4n3)nc1)C2 (stereo not shown) [Compound 21, 8-(1,1-difluoro-5-azaspiro[2.4]heptan-5-yl)-N-(5-(6-ethyl-2,6-diazaspiro[3.3]heptan-2-yl)pyridin-2-yl)pyrido[3,4-d]pyrimidin-2-amine] | 200 to 500 nM | < 200 nM | > 2000 nM | < 200 nM |  |  |  |  | 

The remaining lines, values ahead:

Row | IC50 [1] | IC50 (CDK6/Cyclin D3) | IC50 (CDK1/Cyclin B1) | IC50 (CDK4/Cyclin D1 [2]) | IC50 (CDK4/Cyclin D1 [3]) | IC50 (MCF-7 cells; Homo sapiens, MCF7, 144 h) | IC50 (OVCAR-3 cells; Homo sapiens, 144 h) | IC50 (MCF-7 cells) | IC50 (OVCAR-3 cells) | Compound
6 | < 200 nM | < 200 nM | < 200 nM | < 200 nM |  |  |  |  |  | CS(=O)(=O)N1CCC(Nc2ncc3ccnc(N4C[C@H]5c6ccccc6S(=O)(=O)[C@H]5C4)c3n2)CC1 [Compound 16, (3aR,8bR)-2-(2-((1-(methylsulfonyl)piperidin-4-yl)amino)pyrido[3,4-d]pyrimidin-8-yl)-2,3,3a,8b-tetrahydro-1H-benzo[4,5]thieno [2,3-c]pyrrole 4,4-dioxide]
7 |  | < 200 nM | < 200 nM | < 200 nM |  |  |  |  |  | CS(=O)(=O)N1CCC(Nc2ncc3ccnc(N4CCC5(C4)CC(F)(F)C5)c3n2)CC1 [Example 2, 8-(2,2-difluoro-6-azaspiro[3.4]octan-6-yl)-N-(1-(methylsulfonyl)piperidin-4-yl)pyrido[3,4-d]pyrimidin-2-amine]
8 |  | < 200 nM | < 200 nM |  | < 200 nM | 500 to 2000 nM | 500 to 2000 nM |  |  | Cc1cc2cnc(NC3CCN(S(C)(=O)=O)CC3)nc2c(C2CC(O)(C(F)F)C2)n1 (stereo not shown) [Compound 93, 1-(difluoromethyl)-3-(6-methyl-2-((1-(methylsulfonyl)piperidin-4-yl)amino)pyrido[3,4-d]pyrimidin-8-yl)cyclobutan-1-ol]
